EP2364976B1, “S1P receptor modulating compounds and use thereof” (EPIX Pharmaceuticals, Inc., priority 2007, dated 2007)

Molecular target: T1, hS1P1 (Homo sapiens, UniProt P21453)
T1 construct: expressed in transfected cells
Experiment: hS1P1 EC50 (S1P receptor Ca2+ flux protocol, FLIPR, CHO K1 Gqi5 cells)
Assay type: cell-based
Conditions: several values per compound = repeat determinations as printed
Experimental: S1P receptor activity may also be measured by an SIP receptor (e.g., hS1P1, hS1P3, rS1P1, rS1P3 and parental cell) Ca^2+ Flux protocol as described below: • 1. Material • a. FLIPR buffer: 1x HBSS; 10mM HEPES • b. Cell growth media: • i. human and rat S1P1 and S1P3: F12-Ham's media; 10% FBS (qualified); 1x Pen/Strep/Glu; 300ug/mL Hygromycin; 400ug/mL Geneticin ii. Parental cell: human and rat S1P and S1P3: F12-Ham's media; 10% FBS (qualified); 1x Pen/Strep/Glu; 300ug/mL Hygromycin; • c. Cell seeding media; F12-Ham's media; 10% FBS (Charcoal/dextran stripped); 1x Pen/Strep/Glu; • d. Cell dissociation buffer: Versene from Invitrogen • e. Agonist (SIP) dissolving buffer: 0.4% (w/v) fatty-acid free BSA (Sigma # A8806) in FLIPR buffer • f. FLIPR dye: BD PBX Calcium assay kit; Cat#641077 is composed of Calcium indicator (Cat#850000) and 100x PBX signal enhancer (cat#850001). The 100x PBX signal enhancer is diluted into FLIPR buffer 1:100 and the calcium indicator is then added at 1:1000 ratio. • g. Cell plates (96-well): Greiner Cat#655090 • h. Compound plates (96-well): Costar #3365 • i. S1P stock solution preparation: S1P is purchased from CalBioChem (Catalog # 970471; 1mg vial; custom prep using methanol, & nitrogen gas drying inside glass vial; Storage @ -20°C). Dissolve 1 vial of SIP into 26.4ml of agonist dissolving buffer in a 50ml centrifuge tube; Remove label from bottle of SIP, open and drop entire bottle into tube. Sonicate at 37° for ½ hour. Clear solution of 100µM will result. This stock solution is aliquoted and stored at -80C • 2. Cell line maintenance • a. V5 tags were added at the N-terminus of hS1P1, hS1P3, rS1P1 and rS1P3. All four genes were transfected into CHO K1 cells which stably express Gqi5. • b. hS1P1 and hS1P3 were established as stable clones and rS1P1 and rS1P3 were sorted by anti V5 tag and established as stable pools after sorting. • c. Parental cell line CHO/K1 Gqi5 is used as the control. • d. All the cells are maintained in cell growth media and splitted twice a week using Versene. • e. All the cell lines are used under passage 30. • 3. Assay protocol • a. Cell seeding: Cells are lifted from the flask by Versene and seeded in cell plates at 50K/well in cell seeding media. Cells are grown overnight at 37 degree. • b. Cell loading: Cell seeding media is discarded. Cells are loaded with 50ul of FLIPR dye at RT for 90 min. Signal is stable for up to 5 h after dye loading. • c. Agonist (S1P) preparation: Frozen stock of S1P is thawed out and sonicated at 37c for 30 minutes every time before use. The stock is then diluted into FLIPR buffer at proper concentration. • d. Compound preparation: Compounds are dissolved in DMSO. A 3x, 10 point dilution of the compounds are carried out in DMSO. Then the compounds are diluted into assay buffer133x so that the DMSO concentration is 0.75%. • e. Activity measurement: The fluorescence signal change of the cells upon compound addition is monitored in FLIPRtetra. 25ul of compound is transferred into the cell plates (50ul of FLIPR dye; DMSO concentration: 0.25%). Signal is recorded for 90sec after compound addition. Then 50ul of 500nM SIP is added in the cell plate, and signal is recorded for 90 seconds upon addition. • 4. Data analysis • a. Peak value is calculated for each compound/S1P addition • b. The peak value of S1P at 200nM is used as high control (100%), and the peak value of buffer only is used as low control (0%). • c. Data is normalized against high and low controls using the following equation: POC_S = 100*(RAW-LO)/(HI-LO) [formula] • d. Peak value is plotted against the concentration of compound. • e. Curve is fitted using the 4 parameter fit: Y = (A+(B/(1+(((x/C))^(∧)D)))) [formula] where: Y is POC_S (or POC) • X is compound concentration • A is the minimum (EC50min or IC50min) • B is the maxmum (EC50max or IC50max) • C is the inflection point (EC50IP or IC50IP) • D is the hill slope (EC50 slope or IC50 slope).

T1 sequence (P21453 whole entry): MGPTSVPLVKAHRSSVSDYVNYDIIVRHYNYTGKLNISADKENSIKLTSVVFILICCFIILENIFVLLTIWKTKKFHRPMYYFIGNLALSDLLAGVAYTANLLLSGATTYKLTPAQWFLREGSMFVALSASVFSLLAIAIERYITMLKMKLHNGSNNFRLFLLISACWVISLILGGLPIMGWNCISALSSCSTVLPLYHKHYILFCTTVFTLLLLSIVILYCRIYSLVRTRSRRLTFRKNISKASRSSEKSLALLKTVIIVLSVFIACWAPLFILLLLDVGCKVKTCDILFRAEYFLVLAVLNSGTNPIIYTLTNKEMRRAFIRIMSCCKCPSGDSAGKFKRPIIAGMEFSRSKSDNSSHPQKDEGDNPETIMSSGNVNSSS

Row | SMILES | EC50
1 | O=C(O)C1CN(Cc2ccc(-c3cc4ccccc4o3)c(F)c2)C1 [Reference Compound 68, 1-(4-(benzofuran-2-yl)-3-fluoro-benzyl)azetidine-3-carboxylic acid] | 706 nM
2 | O=C(O)C1CN(Cc2ccc(-c3cc4cc(CC5CCCCC5)ccc4o3)c(F)c2)C1 [Reference Compound 74, 1-(4-(5-(Cyclohexylmethyl)benzofuran-2-yl)-3-fluorobenzyl)azetidine-3-carboxylic acid] | 400 nM
3 | O=C(O)C1CN(Cc2ccc(-c3cc4cc(Oc5ccccc5)ccc4o3)c(F)c2)C1 [Reference Compound 77, 1-(3-Fluoro-4-(5-phenoxybenzofuran-2-yl)benzyl)azetidine-3-carboxylic acid] | 13 nM
4 | Fc1cc(CN2CC(c3nn[nH]n3)C2)ccc1-c1cc2cc(Cc3ccccc3)ccc2o1 [Reference Compound 78, 5-(1-(4-(5-Benzylbenzofuran-2-yl)-3-fluorobenzyl)azetidin-3-yl)-2H-tetrazole] | 2090 nM
5 | CC(CNCc1ccc(-c2cc3cc(Cc4ccccc4)ccc3o2)c(F)c1)C(=O)O (stereo not drawn) [Reference Compound 82, 3-(4-(5-Benzylbenzofuran-2-yl)-3-fluorobenzylamino)-2-methylpropanoic acid] | 1300 nM
6 | NC(=O)CC(NCc1ccc(-c2cc3cc(Cc4ccccc4)ccc3o2)c(F)c1)C(=O)O (stereo not drawn) [Reference Compound 83, 4-Amino-2-(4-(5-benzylbenzofuran-2-yl)-3-fluorobenzylamino)-4-oxobutanoic acid] | 2300 nM
7 | O=C(O)C1CN(Cc2cnc(-c3cc4cc(Cc5ccccc5)ccc4o3)c(F)c2)C1 [Reference Compound 84, 1-((6-(5-Benzylbenzofuran-2-yl)-5-fluoropyridin-3-yl)methyl)azetidine-3-carboxylic acid] | 470 nM
8 | NC(=O)C(CC(=O)O)NCc1ccc(-c2cc3cc(Cc4ccccc4)ccc3o2)c(F)c1 (stereo not drawn) [Reference Compound 85, 4-Amino-3-(4-(5-benzylbenzofuran-2-yl)-3-fluorobenzylamino)-4-oxobutanoic acid] | 1880 nM
9 | O=C(O)C1CN(Cc2cccc(-c3cc4cc(Cc5ccccc5)ccc4o3)c2)C1 [Reference Compound 96, 1-(3-(5-Benzylbenzofuran-2-yl)benzyl)azetidine-3-carboxylic acid] | 4830 nM
10 | CC(C)(c1ccccc1)c1ccc2oc(-c3ccc(CN4CC(C(=O)O)C4)cc3F)cc2c1 [Reference Compound 97, 1-((3-Fluoro-4-(5-(2-phenylpropan-2-yl)benzofuran-2-yl)phenyl)methyl)azetidine-3-carboxylic acid] | 365 nM
11 | O=C(O)C1CN(Cc2ccc(-c3cc4cc(Cc5ccccc5)ccc4[nH]3)c(F)c2)C1 [Reference Compound 99, 1-((3-Fluoro-4-(5-(phenylmethyl)-1H-indol-2-yl)phenyl)methyl)-3-azetidinecarboxylic acid] | 1340 nM

The remaining lines, values ahead:

Row | EC50 | SMILES
12 | 87 nM | O=C(O)C1CN(Cc2ccc(-c3cc4cc(COc5ccccc5)ccc4o3)c(F)c2)C1 [Reference Compound 69, 1-(3-Fluoro-4-(5-(phenoxymethyl)benzofuran-2-yl)benzyl)azetidine-3-carboxylic acid]
13 | 91 nM | O=C(O)C1CN(Cc2ccc(-c3cc4cc(COC5CCCCC5)ccc4o3)c(F)c2)C1 [Reference Compound 70]
14 | 53 nM | O=C(O)C1CN(Cc2ccc(-c3cc4cc(Cc5ccc(F)cc5)ccc4o3)c(F)c2)C1 [Reference Compound 73, 1-(3-fluoro-4-(5-(4-fluorobenzyl)benzofuran-2-yl)benzyl)azetidine-3-carboxylic acid]
15 | 129 nM | O=C(O)C1CN(Cc2ccc(-c3cc4cc(Cc5ccccc5F)ccc4o3)c(F)c2)C1 [Reference Compound 75, 1-(3-Fluoro-4-(5-(2-fluorobenzyl)benzofuran-2-yl)benzyl)azetidine-3-carboxylic acid]
16 | 169 nM | O=C(O)C1CN(Cc2ccc(-c3cc4cc(Cc5cccc(F)c5)ccc4o3)c(F)c2)C1 [Reference Compound 76, 1-(3-Fluoro-4-(5-(3-fluorobenzyl)benzofuran-2-yl)benzyl)azetidine-3-carboxylic acid]
17 | 59 nM | O=C(O)C1CN(Cc2ccc(-c3ccc4oc(Cc5ccccc5)cc4c3)c(F)c2)C1 [Reference Compound 80, 1-(4-(2-Benzylbenzofuran-5-yl)-3-fluorobenzyl)azetidine-3-carboxylic acid]
18 | 11 nM | O=C(O)C1CN(Cc2ccc(-c3cc4cc(Cc5ccccc5)ccc4s3)c(F)c2)C1 [Reference Compound 81, 1-(4-(5-Benzylbenzo[b]thiophen-2-yl)-3-fluorobenzyl)azetidine-3-carboxylic acid]
19 | 12 nM | Cc1ccc(Cc2ccc3oc(-c4ccc(CN5CC(C(=O)O)C5)cc4F)cc3c2)cc1 [Reference Compound 86, 1-(3-Fluoro-4-(5-(4-methylbenzyl)benzofuran-2-yl)benzyl)azetidine-3-carboxylic acid]
20 | 94 nM | O=C(O)C1CN(Cc2ccc(-n3cc4cc(Cc5ccccc5)ccc4n3)c(F)c2)C1 [Reference Compound 87, 1-(4-(5-Benzyl-2H-indazol-2-yl)-3-fluorobenzyl)azetidine-3-carboxylic acid]
21 | 105 nM | O=C(O)C1(O)CN(Cc2ccc(-c3cc4cc(Cc5ccccc5)ccc4o3)c(F)c2)C1 [Reference Compound 88, 1-((4-(5-Benzylbenzofuran-2-yl)-3-fluorophenyl)methyl)-3-hydroxyazetidine-3-carboxylic acid]
22 | 27 nM | O=C(O)C1(O)CN(Cc2ccc(-c3nc4cc(Cc5ccccc5)ccc4s3)c(F)c2)C1 [Reference Compound 89, 1-((4-(5-Benzylbenzo[d]thiazol-2-yl)-3-fluorophenyl)methyl)-3-hydroxyazetidine-3-carboxylic acid]
23 | 99 nM | CC(c1ccccc1)c1ccc2oc(-c3ccc(CN4CC(C(=O)O)C4)cc3F)cc2c1 (stereo not drawn) [Reference Compound 90, 1-((3-Fluoro-4-(5-(1-phenylethyl)benzofuran-2-yl)phenyl)methyl)azetidine-3-carboxylic acid]
24 | 13 nM | O=C(O)C1CN(Cc2ccc(-c3cc4cc(C(F)(F)c5ccccc5)ccc4o3)c(F)c2)C1 [Reference Compound 91, 1-((4-(5-(Difluoro(phenyl)methyl)benzofuran-2-yl)-3-fluorophenyl)methyl)azetidine-3-carboxylic acid]
25 | 7 nM | O=C(O)C1CN(Cc2ccc(-c3cc4ccc(Cc5ccccc5)cc4o3)c(F)c2)C1 [Reference Compound 92, 1-((4-(6-Benzylbenzofuran-2-yl)-3-fluorophenyl)methyl)azetidine-3-carboxylic acid]
26 | 31 nM | O=C(O)C1CN(Cc2ccc(-c3cc4cc(Cc5ccccn5)ccc4o3)c(F)c2)C1 [Reference Compound 93, 1-((3-Fluoro-4-(5-(pyridin-2-ylmethyl)benzofuran-2-yl)phenyl)methyl)azetidine-3-carboxylic acid]
27 | 76 nM | O=C(O)C1CN(Cc2ccc(-c3cc4cc(Cc5nccs5)ccc4o3)c(F)c2)C1 [Reference Compound 94, 1-((3-Fluoro-4-(5-(thiazol-2-ylmethyl)benzofuran-2-yl)phenyl)methyl)azetidine-3-carboxylic acid]
